Reference: ChEMBL document CHEMBL1201862, “PubChem BioAssay data set” (2004)
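Cultured in 96-well plates, cells were exposed to test compound for 48 hours across five concentrations. GI50 is the concentration that inhibits growth by half.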 The source made the active and inactive calls. No stated cut-off is given here; in the data, active = GI50 up to about 1.1 µM and inactive = higher.

Assays:
Assay in all cases: DTP human tumour cell line panel, 48 h
DMS-273 = test system: DMS-273
KM-20L2 = test system: KM-20L2
XF498 = test system: XF498
DLD-1 = test system: DLD-1
DMS-114 = test system: DMS-114
HOP-18 = test system: HOP-18
M19-MEL = test system: M19-MEL
SNB-78 = test system: SNB-78
RXF 631 = test system: RXF 631

SMILES | GI50 (DMS-273) | GI50 (KM-20L2) | GI50 (XF498) | GI50 (DLD-1) | GI50 (DMS-114) | GI50 (HOP-18) | GI50 (M19-MEL) | GI50 (SNB-78) | GI50 (RXF 631)
c1c[nH]c(Cc2nc(Cc3c[nH]cn3)c[nH]2)n1 | 15.2 µM (inactive) | 0.946 µM (active) | 25.8 µM (inactive) | 4.22 µM (inactive) | 16.3 µM (inactive) | 8.28 µM (inactive) | 15.4 µM (inactive) |  | 
COc1ccc(O)c2c(=O)ccccc12 | > 100 µM (inactive) |  | 2.69 µM (inactive) | > 100 µM (inactive) | > 100 µM (inactive) |  | > 100 µM (inactive) | > 100 µM (inactive) | > 100 µM (inactive)
CC1(C)COC(C2(C)C(=O)C=C(c3ccccc3)c3ccccc32)=N1 (stereo not drawn) |  | 40.5 µM (inactive) |  | 66.4 µM (inactive) | 38.7 µM (inactive) | > 100 µM (inactive) | 42.8 µM (inactive) |  | 33 µM (inactive)
COc1cc(/C=C\c2ccncc2)cc(OC)c1OC | 63.8 µM (inactive) | 65.3 µM (inactive) | 29.1 µM (inactive) | > 100 µM (inactive) | 57.3 µM (inactive) | > 100 µM (inactive) |  | > 100 µM (inactive) | 64.7 µM (inactive)
O=C1CCNC/C1=C\c1ccccc1 | 25.8 µM (inactive) | 14.7 µM (inactive) | 23.9 µM (inactive) | 18.9 µM (inactive) | 24.1 µM (inactive) | > 10 µM (inactive) | 17.9 µM (inactive) | 32.8 µM (inactive) | 26.5 µM (inactive)
O=C1C2Nc3ccccc3SC2C(=O)N1c1ccc(Br)cc1 (stereo not drawn) | 21.6 µM (inactive) | 33.2 µM (inactive) | 35.6 µM (inactive) | 15.2 µM (inactive) | 13.5 µM (inactive) |  | 57.1 µM (inactive) | 14.2 µM (inactive) | 
c1ccc(CN2COc3c(ccc4c5c(ccc34)CN(Cc3ccccc3)CO5)C2)cc1 |  | 26.2 µM (inactive) |  | > 100 µM (inactive) | > 100 µM (inactive) | 52 µM (inactive) | > 100 µM (inactive) | > 100 µM (inactive) | > 100 µM (inactive)
CC(C)OP(=O)(OC(C)C)/C(Cl)=N/Nc1ccc([N+](=O)[O-])cc1 | > 100 µM (inactive) | 50.8 µM (inactive) | > 100 µM (inactive) | > 100 µM (inactive) | 81.8 µM (inactive) |  | > 100 µM (inactive) | 80.4 µM (inactive) | 
CCO/S(=N/S(=O)(=O)c1ccccc1)c1ccccc1[N+](=O)[O-] (stereo not drawn) | > 100 µM (inactive) | > 100 µM (inactive) | > 100 µM (inactive) | > 100 µM (inactive) | > 100 µM (inactive) | > 100 µM (inactive) | > 100 µM (inactive) |  | 
COc1ccc(/C=N/N=C(\N)NO)c(OC)c1 |  |  |  | > 100 µM (inactive) | 18.1 µM (inactive) | 14.6 µM (inactive) | 24.5 µM (inactive) | > 100 µM (inactive) | 
NC(=S)NNc1c([N+](=O)[O-])cnn(-c2ccccc2)c1=O | 18.3 µM (inactive) | 15.9 µM (inactive) | 18.7 µM (inactive) | 14.4 µM (inactive) | 17.3 µM (inactive) |  | 13.2 µM (inactive) | 23.3 µM (inactive) | 
CCN(CC)CC(C(=O)Nc1c(C)cccc1C)/C(C)=N\NC(=S)NN (stereo not drawn) | > 100 µM (inactive) | > 100 µM (inactive) | > 100 µM (inactive) | > 100 µM (inactive) |  |  | > 100 µM (inactive) |  | > 100 µM (inactive)
Clc1cc2nc[nH]c2cc1Cl | > 100 µM (inactive) |  | 20.1 µM (inactive) | > 100 µM (inactive) | > 100 µM (inactive) | > 100 µM (inactive) | > 100 µM (inactive) | > 100 µM (inactive) | 
CS/C(=N\c1nccs1)NC(=O)c1cccc(Cl)c1 | > 100 µM (inactive) | > 100 µM (inactive) |  | > 100 µM (inactive) | > 100 µM (inactive) | > 100 µM (inactive) | 85.9 µM (inactive) | > 100 µM (inactive) | 16.8 µM (inactive)
COc1cc2c[n+]3ccc4cc(OC)c(OC)cc4c3cc2cc1O |  | > 100 µM (inactive) | > 100 µM (inactive) | > 100 µM (inactive) |  | > 100 µM (inactive) | > 100 µM (inactive) |  | > 100 µM (inactive)
CCOC(=O)NC(=O)c1cn(CCCOC(=O)NCCCCCCNC(=O)OCCCn2c(=O)c(C(=O)NC(=O)OCC)cn(C)c2=O)c(=O)n(C)c1=O | > 100 µM (inactive) | > 100 µM (inactive) |  | > 100 µM (inactive) | > 100 µM (inactive) | 52.4 µM (inactive) | > 100 µM (inactive) |  | > 100 µM (inactive)
Cc1ccc(NC(=O)CC2Sc3ccccc3NC2=O)c(C)c1 (stereo not drawn) | 12.2 µM (inactive) | 10.9 µM (inactive) | 18.2 µM (inactive) | 8.15 µM (inactive) | 17.9 µM (inactive) | 11 µM (inactive) | 15.3 µM (inactive) | 24.7 µM (inactive) | 7.94 µM (inactive)
COc1cc([C@@H]2c3cc4c(cc3[C@@H](NC(=O)c3cccc(F)c3)C3COC(=O)[C@@H]32)OCO4)cc(OC)c1O (stereo partly drawn) | 0.153 µM (active) | 1.68 µM (inactive) |  | 2.32 µM (inactive) | 0.607 µM (active) | > 100 µM (inactive) | 3.22 µM (inactive) | 15.5 µM (inactive) | 
COC(=O)C1(O)c2ccccc2N=C2C1CCN2C (stereo not drawn) |  | > 100 µM (inactive) | > 100 µM (inactive) | > 100 µM (inactive) | > 100 µM (inactive) | > 100 µM (inactive) |  | > 100 µM (inactive) | 
Nc1ncnc2c1ncn2C1(CO)OC(CO)C(O)C1O (stereo not drawn) | > 100 µM (inactive) | > 100 µM (inactive) | > 100 µM (inactive) | > 100 µM (inactive) | > 100 µM (inactive) | > 100 µM (inactive) |  | > 100 µM (inactive) | > 100 µM (inactive)
COc1cc2c(cc1OC)-c1c(cc(OC)c(OC)c1OC)C2=O |  | > 100 µM (inactive) |  | > 100 µM (inactive) | > 100 µM (inactive) | > 100 µM (inactive) | > 100 µM (inactive) |  | 92.9 µM (inactive)
Cc1cc(C(=O)N2CCN(Cc3ccccc3)CC2)c(C)o1 |  | > 100 µM (inactive) | > 100 µM (inactive) | > 100 µM (inactive) | > 100 µM (inactive) | > 100 µM (inactive) | > 100 µM (inactive) | > 100 µM (inactive) | 
COC(=O)C1CSC(c2csc(CCN)n2)=N1 (stereo not drawn) | > 100 µM (inactive) | > 100 µM (inactive) | > 100 µM (inactive) |  | > 100 µM (inactive) | > 100 µM (inactive) | > 100 µM (inactive) | > 100 µM (inactive) | 
COc1cc(O)c2c(c1)O[C@@H]1OCC[C@H]21 | > 100 µM (inactive) | > 100 µM (inactive) | > 100 µM (inactive) | > 100 µM (inactive) | > 100 µM (inactive) | > 100 µM (inactive) |  | > 100 µM (inactive) | 
